{"source": "patent US11220527B2", "about": "“Peptides derived from the propeptide NTSR3 and their use in the treatment of depression” (CENTRE NATIONAL DE LA RECHERCHE SCIENTIFIQUE, priority 2016, dated 2022)", "key": {"[1]": {"assay": "Learned helplessness test (LHT)", "assay_type": "in vivo", "conditions": "mice, bolus of 100 μL of a 10^-6 M solution 30 minutes before conditioning, FIG. 4", "protocol": "Learned resignation or learned helplessness is a model based on the repeated administration of electric shocks to induce a resigned state in the animal.\nThe apparatus comprises two compartments separated by a sliding door and with a floor consisting of a metal grid through which the electrical pulses are administered. The learned helplessness protocol is divided into two stages, an animal conditioning stage and a test stage.\nThe conditioning was carried out over a period of four days during which time the mice received 360 non-avoidable electric shocks of 0.3 mA for one hour (the door, separating the two compartments, being closed). The shocks lasted for 2 seconds and an interval of 8 seconds was respected between each shock. This conditioning step leads to a phenomenon of helplessness in animals.\nOn the day of the test, the mice were placed in the same compartments but with a possibility of escaping the shock. The test counted 30 trials. During the administration of the shock, the door separating the two compartments opened, allowing the animals to flee. When the animal changes compartment the test is finished and the shock stops. […] This test made it possible to record the escape latencies of the animals. The thirty tests were then grouped by 5 and the average escape time was calculated. […]"}, "[2]": {"test_system": "BrdU-positive cells of the dentate gyrus of the hippocampus", "assay": "Hippocampal neurogenesis by BrdU immunohistochemistry", "assay_type": "in vivo", "conditions": "mice, four days of treatment, FIG. 5", "protocol": "BrdU (5-bromo-2′-deoxyuridine) is a synthetic nucleoside analogous to thymidine. It is incorporated during DNA replication during phase S (chromosome duplication during interphase) of the cells in division. Injection of BrdU makes it possible to visualize the cells in division of the tissue to be analyzed by means of immunological labeling. In the present study, the hippocampal neurogenesis of the mice was evaluated after treatment with spadin or the different analogs.\nAfter the behavioral tests, the mice were injected with BrdU at a final concentration of 120 mg/kg intraperitoneally, according to the modified protocol of Beauquis, J. et al. (Eur J Neurosci 23, 1539-1546, 2007). Four injections of 300 μl at 10 mg/ml, spaced two hours apart, were performed. 24 hours after the injections, the mice were anesthetized with pentobarbital (100 mg/kg) and then perfused intracardially. During the intracardiac perfusion, physiological saline was administered to remove all blood from the body of the mice, and then 4% paraformaldehyde (PFA) was perfused to fix the organs. Post-fixation in 4% PFA was also performed overnight. The brains of the mice were cut with a vibratome (Leica), which allowed 40 μm floating frontal sections to be obtained. The sections selected for the immunological reaction were those ranging from bregma 3.3 to 5.3. Eight sections were selected with a regular spacing, allowing the entire hippocampus to be covered while remaining homogeneous from one brain to another.\nThe immunological reaction was performed by incubating an anti-BrdU primary antibody (BD Pharmingen, 1/8000), with the brain sections, overnight at 4° C. The brain sections were then washed in PBS (Phosphate Buffered Saline) and incubated for two hours with the secondary antibody (biotinylated goat anti-mouse antibody, Vector laboratories, 1/400). […]\nThe sections were then mounted on slides and fixed with Entellan. BrdU-positive cells of the dentate gyrus of the hippocampus were counted in both hemispheres of each brain. […]"}, "[3]": {"test_system": "PSD-95 protein", "assay": "Synaptogenesis: PSD-95 expression in cortical neurons by Western blot", "assay_type": "cell-based, mouse C57BI/6J", "conditions": "1 μM, 0-36 hours, normalized to ß-actin, FIG. 6", "protocol": "Pregnant female C57BI/6J mice (20-25 g, Janvier Labs, St Berthevin, France) were anesthetized by inhalation of 2% isoflurane mixed with 30% oxygen and 70% nitrous oxide, and then sacrificed. The embryos (E14) were removed and the cerebral cortex was dissected in PBS containing 1% glucose. Neurons were prepared from cerebral cortex by mechanical dissociation, as described in Brewer and Torricelli, 2007 [26]. The dissociated neurons were distributed in poly-L-lysine treated plates and cultured for up to 10 days in neurobasal medium containing 2% B27 (Invitrogen, Fisher Scientific, Illkirch, France) and 50 μg/ml gentamycin (Sigma France), at 37° C. under 5% CO2. […]\nCortical neurons treated with peptides G/A-PE(22-28) and biotinylated G/A-PE(22-28) for different durations (0, 5, 8, 24 and 36 hours) were homogenized in Laemmli buffer and analyzed using 10% SDS-Page gels. […] The ß-actin contents were determined after extraction using a 1/5000 dilution of anti-β-actin antibodies (Santa Cruz mouse monoclonal antibody, dilution 1/5000). […] The proteins were detected with ECL Plus detection reagents (Amersham Biosciences) using the LAS-3000 imaging system (Fujifilm, Düsseldorf, Germany). The relative intensities of each labeled band were analyzed by densitometric scanning using ImageJ software (Wayne Rasband, National Institute of Health, Bethesda, Md., USA). […]"}}, "note": "Where no end group is shown, it is not given here.", "data": [{"substance": "AVSWGLR [G/A-PE(22-28), AVSWGLR]", "values": [{"measurement": "escape latencies in the learned helplessness test", "setting": "[1]", "result": "capable of reducing the escape latencies"}, {"measurement": "neurogenesis (BrdU-positive cells of the hippocampus)", "setting": "[2]", "result": "increase neurogenesis more strongly than peptide PE(22-28)"}, {"measurement": "neurogenesis (BrdU-positive cells of the hippocampus)", "setting": "[2]; listed as G/APE(22-28)", "result": "capable of inducing an increase in neurogenesis"}, {"measurement": "PSD-95 synaptic protein expression (synaptogenesis)", "setting": "[3]", "result": "increased PSD-95 synaptic protein expression"}]}]}
